The text below walks through data of patent US20210267194A1, “SEED TREATMENT METHOD” (priority 2018, published 2021).

What is called solubility is how much of the substance goes into solution per volume.

The conditions of data set [1]: footnote a: Chemistry Dashboard of the US Environmental Protection Agency; cited from earlier work.
The nature of data set [2]: Density of the active ingredient (Table 1). The format is physicochemical.
The conditions of data set [3]: footnote a: Chemistry Dashboard of the US Environmental Protection Agency; cited from earlier work. This is another data set of the same source.
The nature of data set [4]: Solubility in water of the active ingredient (Table 1). Particulars: for solubility: water.
The next data set is described as follows: physchem. Particulars: water.

≈ marks a conversion by molar mass, not a printed value. Read-outs that look alike come from different tables or passages of the source.

Take `Fc1ccc([C@]2(Cn3cncn3)O[C@H]2c2ccccc2Cl)cc1` (racemic) [Epoxiconazole]: the Density in data set [1] was 1.42^a g/mL.
Compound `Cc1c(F)c(F)c(COC(=O)[C@@H]2[C@H](/C=C(\Cl)C(F)(F)F)C2(C)C)c(F)c1F` (racemic) [Tefluthrin] came in with a Density in data set [2] of 1.48 g/mL.
For `CO/C=C(/C(=O)OC)c1ccccc1Oc1cc(Oc2ccccc2C#N)ncn1` [Azoxystrobin], the Density in data set [1] is reported as 1.34^a g/mL. Besides, in data set [3], the “Solubility in Water” value is listed as 6.01^a mg/L.
Turning to `CC1(C)C(C=C(Cl)Cl)C1C(=O)OC(C#N)c1ccc(F)c(Oc2ccccc2)c1` (stereo not drawn) [Beta-Cyfluthrin], the “Solubility in Water” value in data set [4] was 0.0012 µg/mL (≈ 0.00276 µM). Besides, the Density in data set [2] is given as 1.35 g/mL.
Consider `COC(=O)Nc1nc2ccccc2[nH]1` [Carbendazim], for which the Density is listed as 1.39^a g/mL in data set [1] and 1.45 g/mL in data set [2]. In the data set “physchem”, this compound displayed a solubility of 8 µg/mL (≈ 41.8 µM).
As to `CNC(=O)c1cc(Cl)cc(C)c1NC(=O)c1cc(Br)nn1-c1ncccc1Cl` [Chlorantraniliprole], the Density in data set [1] is given as 1.65^a g/mL.
Turning to `CN/C(=N\[N+](=O)[O-])NCc1cnc(Cl)s1` [Clothianidin], the concentration in solution in data set [4] (solubility) came to 340 µg/mL (≈ 1360 µM). This compound yielded a Density in data set [2] of 1.61 g/mL.
In the case of `CNC(=O)c1cc(C#N)cc(C)c1NC(=O)c1cc(Br)nn1-c1ncccc1Cl` [Cyantraniliprole], the Density in data set [1] is 1.65^a g/mL.
`CC(C1CC1)C(O)(Cn1cncn1)c1ccc(Cl)cc1` (stereo not drawn) [Cyproconazole]: the Density in data set [1] is on record as 1.31^a g/mL.
Consider `CC[S+]([O-])c1c(C#N)nn(-c2c(Cl)cc(C(F)(F)F)cc2Cl)c1N` (stereo not drawn) [Ethiprole], for which, in data set [2], the Density is on record as 1.69 g/mL.
On to `CSC1=N[C@@](C)(c2ccccc2)C(=O)N1Nc1ccccc1` [Fenamidone], for which the Density in data set [2] is recorded as 1.29 g/mL. The compound further displayed a solubility in the data set “physchem” of 7.8 µg/mL (≈ 25 µM).
On to `N#Cc1nn(-c2c(Cl)cc(C(F)(F)F)cc2Cl)c(N)c1[S+]([O-])C(F)(F)F` (stereo not drawn) [Fipronil], for which the Density in data set [2] is given as 1.71 g/mL. In “physchem”, this compound gave a solubility of 3.78 µg/mL (≈ 8.65 µM).
Turning to `O=[N+]([O-])c1cc(C(F)(F)F)c(Cl)c([N+](=O)[O-])c1Nc1ncc(C(F)(F)F)cc1Cl` [Fluazinam], in data set [1], the Density was 1.80^a g/mL. For the same compound, in data set [3], the “Solubility in Water” value is recorded as 0.68^a mg/L.
Turning to `Cc1cc(C(F)(C(F)(F)F)C(F)(F)F)ccc1NC(=O)c1cccc(I)c1C(=O)NC(C)(C)CS(C)(=O)=O` [Flubendiamide], the Density in data set [1] is on record as 1.78^a g/mL.
For `N#Cc1c[nH]cc1-c1cccc2c1OC(F)(F)O2` [Fludioxinil], the “Solubility in Water” value in data set [4] came out at 1.8 µg/mL (≈ 7.25 µM). In addition, in data set [2], the Density is 1.54 g/mL.
In data set [4], `O=C(NCCc1ncc(C(F)(F)F)cc1Cl)c1ccccc1C(F)(F)F` [Fluopyram] displayed a solubility of 16 µg/mL (≈ 40.3 µM). Also, in data set [2], the Density was found to be 1.53 g/mL.
Take `CO/N=C(/C1=NOCCO1)c1ccccc1Oc1ncnc(Oc2ccccc2Cl)c1F` [Fluoxastrobin]: the concentration in solution in data set [4] (solubility) was 2.29 µg/mL (≈ 4.99 µM). In data set [2], this compound yielded a Density of 1.42 g/mL.
Regarding `O=C1C=C(N(Cc2ccc(Cl)nc2)CC(F)F)CO1` [Flupyradifurone], in data set [4], the “Solubility in Water” value was determined as 3200 µg/mL (≈ 11100 µM). In data set [2], the Density was determined as 1.43 g/mL.
As for `O=c1c2cc(F)ccc2nc(-n2cncn2)n1-c1ccc(Cl)cc1Cl` [Fluquinconazole], in data set [2], the Density is recorded as 1.58 g/mL.
On to `O=[N+]([O-])NC1=NCCN1Cc1ccc(Cl)nc1` [Imidacloprid], for which, in data set [4], the “Solubility in Water” value is 610 µg/mL (≈ 2390 µM). Further, the Density in data set [2] was found to be 1.54 g/mL.
`CC(C)C1CCC(Cc2ccc(Cl)cc2)C1(O)Cn1cncn1` (stereo not drawn) [Ipconazole] returned a Density in data set [2] of 1.2 g/mL. Further, the concentration in solution in “physchem” (solubility) was 9.34 µg/mL (≈ 28 µM).
In the case of `CC(C)NC(=O)N1CC(=O)N(c2cc(Cl)cc(Cl)c2)C1=O` [Iprodione], in data set [2], the Density came out at 1 g/mL. Also, in the data set “physchem”, the concentration in solution (solubility) came to 6.8 µg/mL (≈ 20.6 µM).
In the case of `N#Cc1ccccc1NC(=O)c1snc(Cl)c1Cl` [Isotianil], the “Solubility in Water” value in data set [4] came to 0.5 µg/mL (≈ 1.68 µM). Also, in data set [1], the Density is listed as 1.56^a g/mL.
As to `COCC(=O)N(c1c(C)cccc1C)[C@H](C)C(=O)OC` [Metalaxyl-M], in data set [1], the Density was 1.09^a g/mL.
Consider `COCC(=O)N(c1c(C)cccc1C)C(C)C(=O)OC` (stereo not drawn) [Metalaxyl], for which, in data set [4], the solubility is 8400 µg/mL (≈ 30100 µM). The Density in data set [2] is recorded as 1.2 g/mL.
For `CNC(=O)Oc1cc(C)c(SC)c(C)c1` [Methiocarb], the concentration in solution in data set [4] (solubility) came to 27 µg/mL (≈ 120 µM). In data set [2], this compound returned a Density of 1.25 g/mL.
Regarding `CNC(=O)/C(=N/OC)c1ccccc1Oc1ccccc1` [Metominostrobin], the Density in data set [1] is 1.13^a g/mL.
Turning to `O=C(Nc1ccccc1)N(Cc1ccc(Cl)cc1)C1CCCC1` [Pencycuron], the “Solubility in Water” value in data set [4] worked out at 0.3 µg/mL (≈ 0.912 µM). Moreover, in data set [2], the Density is on record as 1.22 g/mL.
Regarding `Cc1nn(C)c(F)c1C(=O)Nc1ccccc1C(C)CC(C)C` (stereo not drawn) [Penflufen], the “Solubility in Water” value in data set [4] worked out at 10.9 µg/mL (≈ 34.3 µM). The Density in data set [1] is given as 1.18^a g/mL.
In the case of `CO/C=C(/C(=O)OC)c1ccccc1COc1cccc(C(F)(F)F)n1` [Picoxystrobin], the Density in data set [1] is listed as 1.28^a g/mL. Also, the “Solubility in Water” value in data set [3] was 8.30^a mg/L.
On to `CC12CC1(C)C(=O)N(c1cc(Cl)cc(Cl)c1)C2=O` (stereo not drawn) [Procymidone], for which, in data set [1], the Density was 1.43^a g/mL.
With `CCCC1COC(Cn2cncn2)(c2ccc(Cl)cc2Cl)O1` (stereo not drawn) [Propiconazole], in data set [1], the Density is recorded as 1.39^a g/mL.
`OC(Cc1ccccc1Cl)(Cn1nc[nH]c1=S)C1(Cl)CC1` (stereo not drawn) [Prothioconazole] registered a solubility in data set [4] of 300 µg/mL (≈ 871 µM). For the same compound, in data set [2], the Density worked out at 1.36 g/mL.
In the case of `COC(=O)N(OC)c1ccccc1COc1ccn(-c2ccc(Cl)cc2)n1` [Pyraclostrobin], the Density in data set [1] is listed as 1.34^a g/mL. In addition, the “Solubility in Water” value in data set [3] is given as 26.0^a mg/L.
For `CC(c1ccc(C(F)(F)F)nc1)S(C)(=O)=NC#N` (stereo not drawn) [Sulfoxaflor], the Density in data set [1] is recorded as 1.34^a g/mL.
In data set [2], `CC(C)(C)C(O)(CCc1ccc(Cl)cc1)Cn1cncn1` (stereo not drawn) [Tebuconazole] gave a Density of 1.25 g/mL.
Consider `N#C/N=C1\SCCN1Cc1ccc(Cl)nc1` [Thiacloprid], for which the solubility in data set [4] was found to be 184 µg/mL (≈ 728 µM). Further, the Density in data set [2] is given as 1.46 g/mL.
For the compound `CN1COCN(Cc2cnc(Cl)s2)/C1=N\[N+](=O)[O-]` [Thiamethoxam], the Density in data set [1] is recorded as 1.76^a g/mL. For the same compound, in data set [3], the “Solubility in Water” value was 1278^a mg/L.
In data set [4], `CS/C(C)=N\OC(=O)N(C)SN(C)C(=O)O/N=C(\C)SC` [Thiodicarb] registered a solubility of 22.2 µg/mL (≈ 62.6 µM). In data set [2], this compound returned a Density of 1.47 g/mL.
For `CC(C)(C)C(O)C(Oc1ccc(Cl)cc1)n1cncn1` (stereo not drawn) [Triadimenol], the Density in data set [2] is on record as 1.27 g/mL. For the same compound, the concentration in solution in the data set “physchem” (solubility) was 72 µg/mL (≈ 243 µM).
As for `CON=C(C(=O)OC)c1ccccc1CON=C(C)c1cccc(C(F)(F)F)c1` [Trifloxystrobin], the Density in data set [2] was found to be 1.36 g/mL. For the same compound, the concentration in solution in the data set “physchem” (solubility) came to 0.61 µg/mL (≈ 1.49 µM).
Regarding Abamectin, in data set [1], the Density was 1.28^a g/mL. In addition, in data set [3], the “Solubility in Water” value is listed as 36.4^a mg/L.
With Spinetoram, the Density in data set [1] is given as 1.18^a g/mL. In addition, the “Solubility in Water” value in data set [3] is reported as 162^a mg/L.
With Spinosad, the Density in data set [1] was 1.20^a g/mL. Further, the “Solubility in Water” value in data set [3] is on record as 295^a mg/L.
